Measured values reported in patent publication US6169065A, “Method for the activity of an enzyme” (Lever Brothers Company division of Conopco Company, priority 1997, dated 2001).

Experiments:
Type in all cases: biochemical
[1] = molecular target: T1, Arthromyces ramosus peroxidase (Arthromyces ramosus, UniProt P28313); assay: Oxidation (bleaching) of Reactive Black 5 by peroxidase plus enhancer; conditions: for % bleaching / ΔAbs: 590 nm, 25° C., pH 9, 30 min
T1 construct: purchased Sigma P4794
T1 sequence (P28313 21-364): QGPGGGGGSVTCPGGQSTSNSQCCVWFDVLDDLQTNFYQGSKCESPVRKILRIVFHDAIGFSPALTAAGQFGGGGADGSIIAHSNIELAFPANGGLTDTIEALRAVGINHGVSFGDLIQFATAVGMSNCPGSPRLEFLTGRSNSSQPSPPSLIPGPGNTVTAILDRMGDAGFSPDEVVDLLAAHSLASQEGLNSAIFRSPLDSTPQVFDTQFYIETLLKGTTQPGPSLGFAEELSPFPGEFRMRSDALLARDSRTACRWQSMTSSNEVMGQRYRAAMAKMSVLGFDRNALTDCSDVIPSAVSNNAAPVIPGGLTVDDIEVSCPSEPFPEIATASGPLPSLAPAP
Procedure: The oxidation of Reactive Black 5 (RB5) is monitored at 590 nm in a spectrophotometer. […] The reaction was carried out for 30 minutes at room temperature. The difference in absorbance between t=0 and t=30 min (Δ Abs in Table) is a measure of the enhancing activity of the system tested.
ARP [6 u/ml], H2 O2 [250 μM], RB5 [60 μM], Enhancers [100 μM]
(§1) Examples 3-7 were repeated using 2-azaPTP, 4-azaPTP and PTP.

[2] = molecular target: T1, Arthromyces ramosus peroxidase; assay: Oxidation (bleaching) of Direct Green 26 by peroxidase plus enhancer; conditions: 25° C., pH 9, 30 min
Procedure: The oxidation of Direct Green 26 (DG26) is monitored at 610 nm in a spectrophotometer. […] The reaction was carried out for 30 minutes at room temperature. The difference in absorbance between t=0 and t=30 min (Δ Abs in Table) is a measure of the enhancing activity of the system tested.
as §1

[3] = molecular target: T1, Arthromyces ramosus peroxidase; assay: Oxidation (bleaching) of Direct Red 80 by peroxidase plus enhancer; conditions: pH 9, 30 min
Procedure: The reagents are added, using a pipette, in the following order, to a 1-cm cuvette: aqueous carbonate buffer pH 9 (20 mM), DR80 (60 μM), enhancer (various concentrations) and peroxidase enzyme (Arthromyces ramosus peroxidase from Sigma, P4794); 60 units/ml). The reaction was carried out for 30 minutes at room temperature. The difference in absorbance between t=0 and t=30 min (Δ Abs in Table) is a measure of the enhancing activity of the system tested.
as §1

[4] = molecular target: T2, laccase (Polyporus pinsitus) (Trametes villosa, UniProt Q99044); assay: Oxidation of Reactive Black 5 by laccase plus enhancer; conditions: for decrease in absorbance after 3 h: 25 C, laccase 30 u/ml, enhancer 67 μM
T2 sequence (Q99044 22-520): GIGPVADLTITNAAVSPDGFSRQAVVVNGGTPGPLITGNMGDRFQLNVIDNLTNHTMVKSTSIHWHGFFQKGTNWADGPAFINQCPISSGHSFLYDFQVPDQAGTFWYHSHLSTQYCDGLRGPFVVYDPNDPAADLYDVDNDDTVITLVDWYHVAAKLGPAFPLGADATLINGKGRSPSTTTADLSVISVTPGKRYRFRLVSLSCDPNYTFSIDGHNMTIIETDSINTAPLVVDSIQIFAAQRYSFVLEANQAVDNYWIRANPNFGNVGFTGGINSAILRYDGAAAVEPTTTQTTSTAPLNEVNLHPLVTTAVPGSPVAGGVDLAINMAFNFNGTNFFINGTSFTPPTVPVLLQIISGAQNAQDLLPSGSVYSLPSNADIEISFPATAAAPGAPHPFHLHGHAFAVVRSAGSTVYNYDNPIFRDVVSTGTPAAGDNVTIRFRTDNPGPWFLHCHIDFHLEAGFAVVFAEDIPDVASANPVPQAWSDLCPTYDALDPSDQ
Procedure: The laccase activity is measured on a spectrophotometer with 2 mM ABTS in 20 mM sodium phosphate buffer pH 6.0 at 25° C. The oxidation of Reactive Black 5 (RB5) is monitored at 575 nm. The reagents are added, using a pipette, in the following order, to a 1-cm cuvette: aqueous tris buffer pH 9 (20 mM) or sodium phosphate buffer pH 6.0 (20 mM), RB5 (67 μM), enhancer (67 μM), and laccase (Polyporus pinsitus, 30 units/ml). The reaction was carried for 3 hours at room temperature. The difference in absorbance between t=0 and t=3 hours is a measure of the enhancing activity of the system tested. RB5 [575 nm]: 25 C, pH 6.0 and 9.0, 3 h. Laccase [30 u/ml], RB5 [67 μM], Enhancers [67 μM]. The values listed are the decrease in absorbance at […] after 3 h.

[5] = molecular target: T2, laccase (Polyporus pinsitus); assay: Oxidation of Direct Green 26 by laccase plus enhancer; conditions: 25° C., laccase 30 u/ml, enhancer 67 μM
Procedure: The oxidation of Direct Green 26 (DG26) is monitored at 605 nm in a spectrophotometer. The reagents are added, using a pipette, in the following order, to a 1-cm cuvette: aqueous tris buffer pH 9 (20 mM) or sodium phosphate buffer pH 6.0 (20 mM), DG26 (67 μM), enhancer (67 μM), and laccase (Polyporus pinsitus, 30 units/ml). The reaction was carried for 3 hours at room temperature. The difference in absorbance between […] and t=3 h is a measure of the enhancing activity of the system tested. DG26 [605 nm]: 25° C., pH 6.0 and 9.0, 3 h. Laccase [30 u/ml], DG26 [67 μM], Enhancers [67 μM]. The values listed are the decrease in absorbance at 605 nm after 3 h.

[6] = Example 8: RB5 60 μM, ARP 10 u/ml, H2O2 100 μM, enhancer 200 μM
[7] = Example 8: DG26, 610 nm, ARP 10 u/ml, H2O2 100 μM, dye 60 μM, enhancer 200 μM
[8] = Example 8: DR80, 530 nm, 25° C., ARP 10 u/ml, H2O2 100 μM, dye 60 μM, enhancer 100 μM
[9] = Example 8: DR80, 530 nm, 25° C., ARP 10 u/ml, H2O2 100 μM, dye 60 μM, enhancer 200 μM
[10] = RB5 60 μM, ARP 6 u/ml, H2O2 250 μM, enhancer 100 μM
[11] = DG26 60 μM, 610 nm, ARP 60 u/ml, H2O2 250 μM, enhancer 100 μM
[12] = DR80 60 μM, 500 nm, 25C, ARP 60 u/ml, H2O2 250 μM, enhancer 100 μM
[13] = DR80 60 μM, 500 nm, 25° C., ARP 60 u/ml, H2O2 250 μM, enhancer 10 μM
[14] = DR80 60 μM, 500 nm, 25° C., ARP 60 u/ml, H2O2 250 μM, enhancer 25 μM
[15] = DR80 60 μM, 500 nm, 25° C., ARP 60 u/ml, H2O2 250 μM, enhancer 50 μM

O=C(O)CCN1c2ccccc2Sc2cnccc21 [Enhancer 2-aza-PTP, 10-(pyrido[3,4-b][1,4]benzothiazyl)propionic acid]
% bleaching [1, 6]: 63% | % bleaching [2, 7]: 31% | % bleaching [3, 8]: 12% | % bleaching [3, 9]: 20%

O=C(O)CCN1c2ccccc2Sc2ccccc21 [PTP, reference compound]
% bleaching [1, 6]: 35% | % bleaching [1, 10]: 80% | ΔAbs [1, 10]: 1.03 | % bleaching [2, 11]: 65% | ΔAbs [2, 11]: 0.92 | % bleaching [2, 7]: 29% | % bleaching [3, 12]: 48% | ΔAbs [3, 12]: 0.78 | % bleaching [3, 13]: 20% | ΔAbs [3, 13]: 0.33 | % bleaching [3, 14]: 40% | ΔAbs [3, 14]: 0.66 | % bleaching [3, 15]: 50% | ΔAbs [3, 15]: 0.82 | % bleaching [3, 8]: 6% | % bleaching [3, 9]: 2% | decrease in absorbance after 3 h ([4]; pH 6.0, RB5 67 μM): 0.32 | decrease in absorbance after 3 h ([4]; pH 9.0, RB5 67 μM): 0.24 | decrease in absorbance at 605 nm after 3 h ([5]; pH 6.0, DG26 67 μM): 0.14 | decrease in absorbance at 605 nm after 3 h ([5]; pH 9.0, DG26 67 μM): 0.37

O=C(O)CCN1c2ccccc2Sc2cccnc21 [Enhancer 4-aza-PTP, 10-(pyrido[3,2-b][1,4]benzothiazyl)propionic acid]
% bleaching [1, 6]: 64% | % bleaching [1, 10]: 76% | ΔAbs [1, 10]: 1.01 | enhancing capabilities with peroxidase ([1]; summary of Examples 3-5, especially at lower concentrations (Example 5)): excellent enhancing capabilities | % bleaching [2, 11]: 78% | ΔAbs [2, 11]: 1.09 | % bleaching [2, 7]: 43% | % bleaching [3, 12]: 33% | ΔAbs [3, 12]: 0.50 | % bleaching [3, 13]: 60% | ΔAbs [3, 13]: 0.98 | % bleaching [3, 14]: 83% | ΔAbs [3, 14]: 1.26 | % bleaching [3, 15]: 60% | ΔAbs [3, 15]: 0.91 | % bleaching [3, 8]: 18% | % bleaching [3, 9]: 10% | decrease in absorbance after 3 h ([4]; pH 6.0, RB5 67 μM): 0.48 | decrease in absorbance after 3 h ([4]; pH 9.0, RB5 67 μM): 0.26 | enhancing capabilities with laccase ([4]; summary of Examples 6-7): excellent enhancing capabilities | decrease in absorbance at 605 nm after 3 h ([5]; pH 6.0, DG26 67 μM): 0.34 | decrease in absorbance at 605 nm after 3 h ([5]; pH 9.0, DG26 67 μM): 0.30
